In patent US20210270801A1, “TOPOGRAPHICALLY GUIDED CELL MIGRATION DEVICES AND METHODS” (priority 2018, published 2021):

System: MCF10A cells
Assay: Impedimetric collective cell migration assay with proliferation inhibitor
Assay type: cell-based
Conditions: 1 ng/ml
Method: In experiments designed to validate the proper functioning of devices, systems and methods for CMAPs of the present disclosure, MCF10A cells, a non-tumorigenic mammary epithelial cell line, were chosen as the cell model to validate whether a Nafion-nanotextured substrate is suitable for cell growth and migration. Cell monolayers were grown to cover a half of the area of each well to achieve a uniform condition at the beginning of the experiment. An elastomeric silicone (polydimethylsiloxane or PDMS) block was attached to the Nafion-patterned surface in each well, and then the MCF10A cells were seeded into the notch of the PDMS block at a seeding density of 20,000 cells per well. After 24 hours of incubation, the cells grew into a cell monolayer in the cell-seeding region and the PDMS block in each well was removed to initiate an impedimetric recording of collective cell migration. Cells migrated collectively as a cell sheet in a migration direction toward the other side of the well along the direction of nanogrooves and reached the end of the nanotextured migration area after 60-hour of migration.
Additional validation studies were carried out to determine whether collective cell migration behaviors are affected by the nanotextured cell-interface surface, which mimics the topography of in vivo cell migration microenvironment. MCF10A cells were grown on both nanotextured and untextured surfaces and the distances between the cell sheet border at 0 hour and 60 hours were measured.
Identifying effective drugs that target tumor metastasis is one of the ultimate goals of cancer migration assays. For this reason, a CMAP of the present disclosure was used to assess its capability to detect drug effects by using widely applied inhibitors. In this experiment, 1 ng/ml mitomycin C was used to inhibit MCF10A cell proliferation to determine whether collective cell migration is still faster on Nafion-nanotextured surfaces than on the untextured surfaces, after eliminating proliferation as a confounding factor.

CO[C@@]12[C@H](COC(N)=O)C3=C(C(=O)C(C)=C(N)C3=O)N1C[C@@H]1N[C@@H]12 [mitomycin C]
collective migration (Nafion-nanotextured (NP) surface, compared with UP untreated, P<0.05): continued to migrate with alacrity, even outpacing their UP untreated counterparts | collective migration after proliferation inhibition (both nanotextured (NP) and untextured (UP) groups, impedance at 10 kHz): substantially slowed but did not inhibit collective migration | collective migration / change in impedance over the duration (untextured (UP) surface): migrated minimally as expected with no significant change in impedance
